# Measurements taken from patent US7402698B2, “Secondary amino-and cycloamino-cycloalkanol derivatives and methods of their use” (Wyeth, priority 2003, dated 2008).
# Structures can show the parent of a compound that is named as a salt.
# Target: T1, human hNET (Homo sapiens, UniProt P23975)
# T1 construct: expressed in transfected cells; host or cells: MDCK-Net6 (MDCK cells stably transfected with hNET)
# Experiment: Norepinephrine (NE) uptake assay in MDCK-Net6 cells
# Assay type: cell-based
# Conditions: 1 μM test compound, [3H]NE uptake
# Protocol: MDCK-Net6 cells, stably transfected with human hNET (Pacholczyk, T., R. D. Blakely, and S. G. Amara, Nature, 1991, 350(6316): p. 350-4) were cultured in growth medium containing high glucose DMEM (Gibco, Cat. No. 11995), 10% FBS (dialyzed, heat-inactivated, US Bio-Technologies, Lot FBD1129HI) and 500 μg/ml G418 (Gibco, Cat. No. 10131). Cells were plated at 300,000/T75 flask and cells were split twice weekly. The JAR cell line (human placental choriocarcinoma) was purchased from ATCC (Cat. No. HTB-144). The cells were cultured in growth medium containing RPMI 1640 (Gibco, Cat. No. 72400), 10% FBS (Irvine, Cat. No. 3000), 1% sodium pyruvate (Gibco, Cat. No. 1136) and 0.25% glucose. Cells were plated at 250,000 cells/T75 flask and split twice weekly. For all assays, cells were plated in Wallac 96-well sterile plates (PerkinEimer, Cat. No. 3983498).
# On day 1, cells were plated at 3,000 cells/well in growth medium and maintained in a cell incubator (37° C., 5% CO2). On day 2, growth medium was replaced with 200 μl of assay buffer (25 mM HEPES; 120 mM NaCl; 5 mM KCl; 2.5 mM CaCl2; 1.2 mM MgSO4; 2 mg/ml glucose (pH 7.4, 37° C.)) containing 0.2 mg/ml ascorbic acid and 10 μM pargyline. Plates containing cells with 200 μl of assay buffer were equilibrated for 10 minutes at 37° C. prior to addition of compounds. A stock solution of desipramine was prepared in DMSO (10 mM) and delivered to triplicate wells containing cells for a final test concentration of 1 μM. Data from these wells were used to define non-specific NE uptake (minimum NE uptake). Test compounds were prepared in DMSO (10 mM) and diluted in assay buffer according to test range (1 to 10,000 nM). Twenty-five microliters of assay buffer (maximum NE uptake) or test compound were added directly to triplicate wells containing cells in 200 μl of assay buffer. The cells in assay buffer with test compounds were incubated for 20 minutes at 37° C. To initiate the NE uptake, [^3H]NE diluted in assay buffer (120 nM final assay concentration) was delivered in 25 μl aliquots to each well and the plates were incubated for 5 minutes (37° C.). The reaction was terminated by decanting the supernatant from the plate. The plates containing cells were washed twice with 200 μl assay buffer (37° C.) to remove free radioligand. The plates were then inverted, left to dry for 2 minutes, then reinverted and air-dried for an additional 10 minutes. The cells were lysed in 25 μl of 0.25 N NaOH solution (4° C.), placed on a shake table and vigorously shaken for 5 minutes. After cell lysis, 75 μl of scintillation cocktail was added to each well and the plates were sealed with film tape. The plates were returned to the shake table and vigorously shaken for a minimum of 10 minutes to ensure adequate partitioning of organic and aqueous solutions. The plates were counted in a Wallac Microbeta counter (PerkinEimer) to collect the raw cpm data.
# For each experiment, a data stream of cpm values collected from the Wallac Microbeta counter was downloaded to a Microsoft Excel statistical application program. Calculations of EC50 values were made using the transformed-both-sides logistic dose responses program written by Wyeth Biometrics Department. The statistical program uses mean cpm values from wells representing maximum binding or uptake (assay buffer) and mean cpm values from wells representing minimum binding or uptake ((1 μM desipramine (hNET) or 1 μM paroxetine (hSERT)). Estimation of the EC50 value was completed on a log scale and the line was fit between the maximum and minimum binding or uptake values. All graphic data representation was generated by normalizing each data point to a mean percent based on the maximum and minimum binding or uptake values. The EC50 values reported from multiple experiments were calculated by pooling the raw data from each experiment and analyzing the pooled data as one experiment.
# T1 sequence (P23975 whole entry): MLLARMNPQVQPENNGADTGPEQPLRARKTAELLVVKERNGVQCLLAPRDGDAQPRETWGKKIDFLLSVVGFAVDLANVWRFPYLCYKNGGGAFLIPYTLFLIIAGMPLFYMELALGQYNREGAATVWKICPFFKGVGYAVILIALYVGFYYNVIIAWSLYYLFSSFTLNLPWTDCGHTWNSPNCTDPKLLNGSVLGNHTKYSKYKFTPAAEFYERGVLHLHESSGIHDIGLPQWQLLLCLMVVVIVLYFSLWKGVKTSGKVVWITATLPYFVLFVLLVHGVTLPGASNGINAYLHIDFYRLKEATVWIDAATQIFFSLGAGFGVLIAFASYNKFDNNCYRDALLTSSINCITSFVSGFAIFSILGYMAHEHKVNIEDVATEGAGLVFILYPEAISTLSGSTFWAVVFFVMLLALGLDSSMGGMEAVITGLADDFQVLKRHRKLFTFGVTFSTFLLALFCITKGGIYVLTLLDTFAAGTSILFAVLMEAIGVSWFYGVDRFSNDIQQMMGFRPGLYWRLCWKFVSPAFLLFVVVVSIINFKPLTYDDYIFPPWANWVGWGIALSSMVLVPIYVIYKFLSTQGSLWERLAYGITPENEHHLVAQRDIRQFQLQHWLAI
row,inhibition at 1 µM [%],Compound
1,56,"OC1(C(CNCc2ccccc2)c2ccc(Cl)c(Cl)c2)CCCCC1 (centres unmarked) [Example 38, 1-[2-(benzylamino)-1-(3,4-dichlorophenyl)ethyl]cyclohexanol hydrochloride]"
2,90,"OC1(C(CNCc2ccccc2)c2ccc3ccccc3c2)CCC1 (centres unmarked) [Example 12, 1-[2-(benzylamino)-1-(2-naphthyl)ethyl]cyclobutanol hydrochloride]"
3,31,"OC1(C(CNCc2ccccc2)c2cccc(Br)c2)CCCCC1 (centres unmarked) [Example 61, 1-[2-(benzylamino)-1-(3-bromophenyl)ethyl]cyclohexanol hydrochloride]"
4,44,"CN1CCC(O)(C(CNCc2ccccc2)c2cccc(Br)c2)CC1 (centres unmarked) [Example 44, 4-[2-(benzylamino)-1-(3-bromophenyl)ethyl]-1-methylpiperidin-4-ol dihydrochloride]"
5,40,"OC1(C(CNCc2ccc(F)cc2)c2cccc(C(F)(F)F)c2)CCCCC1 (centres unmarked) [Example 47, 1-{2-[(4-fluorobenzyl)amino]-1-[3-(trifluoromethyl)phenyl]ethyl}cyclohexanol hydrochloride]"
6,26,"OC1(C(CNC2CCCCC2)c2cccc(Cl)c2)CCCCC1 (centres unmarked) [Example 67, 1-[1-(3-chlorophenyl)-2-(cyclohexylamino)ethyl]cyclohexanol hydrochloride]"
7,92,"OC1(C(CNCc2ccccc2)c2ccc(Cl)c(Cl)c2)CCC1 (centres unmarked) [Example 10, 1-[2-(benzylamino)-1-(3,4-dichlorophenyl)ethyl]cyclobutanol hydrochloride]"
8,33,"OC1(C(CNCc2cccc(Cl)c2)c2cccc(Br)c2)CCCCC1 (centres unmarked) [Example 60, 1-{1-(3-bromophenyl)-2-[(3-chlorobenzyl)amino]ethyl}cyclohexanol hydrochloride]"
9,30,"OC1(C(CNCc2ccccc2)c2ccc3ccccc3c2)CCCCC1 (centres unmarked) [Example 62, 1-[2-(benzylamino)-1-(2-naphthyl)ethyl]cyclohexanol hydrochloride]"
10,55,"OC1(C(CNCc2ccccc2)c2cccc(Br)c2)CCC1 (centres unmarked) [Example 40, 1-[2-(benzylamino)-1-(3-bromophenyl)ethyl]cyclobutanol hydrochloride]"
11,69,"OC1(C(CNCc2cccc(Cl)c2)c2ccc3ccccc3c2)CCCCC1 (centres unmarked) [Example 33, 1-[2-[(3-chlorobenzyl)amino]-1-(2-naphthyl)ethyl]cyclohexanol hydrochloride]"
12,65,"OC1(C(CN2CCCC2)c2cccc(Cl)c2)CCCCC1 (centres unmarked) [Example 34, 1-[1-(3-chlorophenyl)-2-pyrrolidin-1-ylethyl]cyclohexanol hydrochloride]"
13,40,"OC1(C(CNC2CCCCC2)c2cccc(Br)c2)CCCCC1 (centres unmarked) [Example 48, 1-[1-(3-bromophenyl)-2-(cyclohexylamino)ethyl]cyclohexanol hydrochloride]"
14,38,"OC1(C(CNC2CCCc3ccccc32)c2cccc(Br)c2)CCCCC1 (centres unmarked) [Example 55, 1-[1-(3-bromophenyl)-2-(1,2,3,4-tetrahydronaphthalen-1-ylamino)ethyl]cyclohexanol hydrochloride]"
15,17,"OC1(C(CN2CCCCC2)c2cccc(Cl)c2)CCCCC1 (centres unmarked) [Example 85, 1-[1-(3-chlorophenyl)-2-piperidin-1-ylethyl]cyclohexanol hydrochloride]"
16,89,"CN1CCC(O)(C(CNCc2ccccc2)c2ccc(Cl)c(Cl)c2)CC1 (centres unmarked) [Example 15, 4-[2-(benzylamino)-1-(3,4-dichlorophenyl)ethyl]-1-methylpiperidin-4-ol dihydrochloride]"
17,15,"OC1(C(CNCc2ccc(C(F)(F)F)cc2)c2cccc(Br)c2)CCCCC1 (centres unmarked) [Example 90, 1-(1-(3-bromophenyl)-2-{[4-(trifluoromethyl)benzyl]amino}ethyl)cyclohexanol hydrochloride]"
18,48,"OC1(C(CNC2CCCCC2)c2ccc(Cl)c(Cl)c2)CCCCC1 (centres unmarked) [Example 42, 1-[2-(cyclohexylamino)-1-(3,4-dichlorophenyl)ethyl]cyclohexanol hydrochloride]"
19,51,"OC1(C(CNCc2ccccc2)c2cccc(Cl)c2)CCCCC1 (centres unmarked) [Example 41, 1-[2-(benzylamino)-1-(3-chlorophenyl)ethyl]cyclohexanol hydrochloride]"
20,22,"OC1(C(CNCc2ccc(C(F)(F)F)cc2)c2ccc(Cl)c(Cl)c2)CCCCC1 (centres unmarked) [Example 75, 1-(1-(3,4-dichlorophenyl)-2-{[4-(trifluoromethyl)benzyl]amino}ethyl)cyclohexanol hydrochloride]"
21,19,"OC1(C(CN2CCOCC2)c2ccc(Cl)c(Cl)c2)CCC1 (centres unmarked) [Example 83, 1-[1-(3,4-dichlorophenyl)-2-morpholin-4-ylethyl]cyclobutanol hydrochloride]"
22,20,"OC1(C(CNCc2ccc(F)cc2)c2ccc(Cl)c(Cl)c2)CCCCC1 (centres unmarked) [Example 80, 1-{1-(3,4-dichlorophenyl)-2-[(4-fluorobenzyl)amino]ethyl}cyclohexanol hydrochloride]"
23,35,"OC1(C(CN2CCOCC2)c2cccc(Cl)c2)CCCCC1 (centres unmarked) [Example 57, 1-[1-(3-chlorophenyl)-2-morpholin-4-ylethyl]cyclohexanol hydrochloride]"

row,Compound,inhibition at 1 µM [%]
1,"OC1(C(CN2CCNCC2)c2cccc(Cl)c2)CCCCC1 (centres unmarked) [Example 1, 1-[1-(3-chlorophenyl)-2-piperazin-1-ylethyl]cyclohexanol dihydrochloride]",93

# Target: T1, human hNET
# Experiment: as above
# Assay type: cell-based
# Conditions: 30 μM test compound (stated in cell), [3H]NE uptake
row,inhibition at 30 µM [%],Compound
1,67,"OC1(C(CN2CCOCC2)c2cccc(Br)c2)CCC1 (centres unmarked) [Example 95, 1-[1-(3-bromophenyl)-2-morpholin-4-ylethyl]cyclobutanol hydrochloride]"
2,55,"OC1(C(CNCc2ccc(F)cc2)c2ccc3ccccc3c2)CCCCC1 (centres unmarked) [Example 113, 1-[2-[(4-fluorobenzyl)amino]-1-(2-naphthyl)ethyl]cyclohexanol hydrochloride]"
3,69,"OC1(C(CNCc2ccc(F)cc2)c2cccc(Br)c2)CCCCC1 (centres unmarked) [Example 98, 1-{1-(3-bromophenyl)-2-[(4-fluorobenzyl)amino]ethyl}cyclohexanol hydrochloride]"
4,80,"OC1(C(CN2CCOCC2)c2ccc(Cl)c(Cl)c2)CCCCC1 (centres unmarked) [Example 112, 1-[1-(3,4-dichlorophenyl)-2-morpholin-4-ylethyl]cyclohexanol hydrochloride]"
5,6,"CN1CCC(O)(C(CN2CCOCC2)c2cccc(Br)c2)CC1 (centres unmarked) [Example 116, 4-[1-(3-bromophenyl)-2-morpholin-4-ylethyl]-1-methylpiperidin-4-ol dihydrochloride]"
6,55,"OC1(C(CN2CCOCC2)c2cccc(Br)c2)CCCCC1 (centres unmarked) [Example 99, 1-[1-(3-bromophenyl)-2-morpholin-4-ylethyl]cyclohexanol hydrochloride]"
7,99,"OC1(C(CNCc2ccc(C(F)(F)F)cc2)c2cccc(Cl)c2)CCCCC1 (centres unmarked) [Example 105, 1-(1-(3-chlorophenyl)-2-{[4-(trifluoromethyl)benzyl]amino}ethyl)cyclohexanol hydrochloride]"
8,52,"CN1CCC(O)(C(CN2CCOCC2)c2ccc(Cl)c(Cl)c2)CC1 (centres unmarked) [Example 114, 4-[1-(3,4-dichlorophenyl)-2-morpholin-4-ylethyl]-1-methylpiperidin-4-ol dihydrochloride]"
